≈ marks a conversion by molar mass, not a printed value. Like-named read-outs stand apart in the source and are kept apart here.
Assays:
[1] = tested on: Candida albicans TIMM 1768; test: Inhibition test for Candida mycelial growth (crystal violet, checkerboard for combinations); assay type: cell-based; settings: for IC (at a 70% growth inhibitory concentration): checkerboard; for IC 70 (70% growth inhibitory concentration): alone, Candida mycelial growth; for improvement effect in the anticandidal activity against Candida mycelial growth: test reagent alone, concentration series
Protocol: A clinical isolate, Candida albicans TIMM 1768, held by the Teikyo University Medical Mycology Research Center was used as the Candida. This Candida was cultured for 20 hours at 37° C. on a Sabouraud Dextrose Agar culture plate. The multiplied bacterial cells were recovered, and then suspended in sterilized water so as to form Candida solutions whose bacterial count was adjusted to 5×10^3 cells/ml. Each sample was dissolved in advance in DMSO (dimethyl sulfoxide) so as to match the final concentration, and was then added to a 1/3 RPMI-1640 culture medium containing 2% calf serum so as to form sample solutions. 100 μL of both the sample solution (having a DSMO concentration in the culture medium of 0.5%) and the Candida bacterial solution were then placed respectively in each well of a 96-hole microplate (manufactured by Sumitomo Bakelite, Tokyo), and these were then cultured for three hours at 37° C. in a 5% carbon dioxide gas atmosphere. After three hours, the solutions in each well were discarded and the wells were cleaned. Subsequently, 200 μL of 1/3 RPMI-1640 was newly added to each well, and culturing was performed for 16 hours at 37° C. in a presence of 5% carbon dioxide gas. Once this culturing had ended, the solutions in each well were removed by suction, and the wells were washed using physiological saline. 200 μL of 70% ethanol was then injected so as to sterilize the Candida. After the ethanol had been removed, and the wells washed with tap water, 100 μL of a dye solution (i.e., a 0.1 M phosphate buffer containing 0.01% of dissolved crystal violet solution) was injected and left standing for 15 minutes. As a result, the Candida mycelia adhering to the surface of the wells were dyed.
After the wells were then washed with tap water so as to remove excess dye solution, 150 μL of […] containing 0.04 NHCL, and 50 μL of a 0.25% sodium dodecyl sulfate solution were then injected so as to free the coloring adhering to the bacterial cells. After the coloring had been freed, the plate was set in a multiscan photometer (i.e., a Multiskan FC, manufactured by Thermo Fisher Scientific Inc.), and the OD at 620 nm was measured in each well. The growth inhibition rate was then determined using the following formula. Growth inhibition rate (%)=(1−sample OD/subject OD)×100
The anticandidal activity synergistic effect provided by the combined use was evaluated using a checkerboard method. […] The experiment conditions and the measurement method and the like were the same as those employed for the mycelial growth test (i.e., Example 1).
The anticandidal activity synergistic effect obtained from a combined use was evaluated using a checkerboard method in the same way as in Example 2. […] The experiment conditions and the measurement method and the like were the same as those employed for the mycelial growth test (i.e., Example 1).
The anticandidal activity effect obtained from each test reagent was evaluated using a checkerboard method in the same way as in Example 2. […] The experiment conditions and the measurement method and the like were the same as those employed for the mycelial growth test (i.e., Example 1).

[2] = tested on: Trichophyton mentagrophytes TIMM 2789; test: In vitro inhibition test for Trichophyton (pour-plate, agar); assay type: cell-based; settings: cultured at 28° C.
Protocol: A clinical isolate, Trichophyton mentagrophytes TIMM 2789, held by the Teikyo University Medical Mycology Research Center was used as the Trichophyton. For the preculture process, this Trichophyton was extracted from low-temperature silica stock one week prior to the day of the test, and was cultured on a Sabouraud Dextrose Agar culture plate containing 50 μg/ml of chloramphenicol and 500 μg/ml of cycloheximide (such that these components were diluted to 1/10). This culturing was performed for one week at 28° C., and the bacteria were collected and used on the day of the test. The setting of the Trichophyton bacterial count was achieved by transferring the collected bacteria using a pour-plate method to a culture medium such that the final concentration was 10^3 cells/ml. In addition, the respective test samples were also transferred to a culture medium using a pour-plate method such that the final concentrations thereof were set to those shown in the table below. […] In the preparation, 1 ml of each test sample solution and 24 ml of RPMI-1640 culture medium were blended together, and prepared in a sterilized plastic Petri dish. The Trichophyton inoculation culture medium that was prepared in this manner was then cultured at 28° C. for four days, and the growth inhibitory effect of the mycelia after this culturing was observed and the properties thereof determined. The determinations were made both visually, and in the case of turbidity being present, by comparing the growth condition of the mycelia with a control (containing no test sample additives) via photomicrograph (at magnification ×40).
Results for the negativity and positivity of the bacteria obtained from each test sample are shown below in Table 6. Note that if the mycelial growth rate of the control is taken as 100%, then when the mycelial growth rate in the test sample is 0%, this is determined to be [−], while if the mycelial growth rate in the test sample is 1 to 20%, this is determined to be [+], and if the mycelial growth rate in the test sample is 21 to 90%, this is determined to be […]. Note that FIG. 15 and FIG. 16 are photographs showing states 7 days after colony formation of the Trichophyton in each test sample.

Malassezia pachydermatis = test: Anti-Malassezia fungal activity, agar dilution method; assay type: cell-based; settings: for Determination (mycelial growth rate taking control as 100): 7 days at 32° C.
Protocol: 100 μL lots of the test bacterial solution adjusted to McFarland 1.0 were coated over this Agar plate and were cultured for seven days at 32° C. Thereafter, the growth rate of the bacteria thereon were compared with a control (i.e., an MLNA culture medium containing no test additives) and their properties were determined. […] Note that if the mycelial growth rate of the control is taken as 100%, then when the mycelial growth rate in the test sample is 0%, this is determined to be [−], while if the mycelial growth rate in the test sample is 1 to 20%, this is determined to be [+], and if the mycelial growth rate in the test sample is 21 to 90%, this is determined to be […].

[3] = tested on: Trichophyton mentagrophytes TIMM 2789; test: In vitro inhibition test for Trichophyton (pour-plate, agar); assay type: cell-based; settings: for MIC: Trichophyton mentagrophytes, read-out: MIC (minimum inhibitory concentration)
[4] = tested on: Candida albicans TIMM 1768; test: Oral candidiasis model in mice; assay type: in vivo, ICR strain mice; settings: day 2
Protocol: Using ICR strain mice (males, 6 weeks old, Charles River Laboratories, Japan) as the experimental animals, these mice were subcutaneously injected with 100 mg/kg of prednisolone as an immunosuppressant on the day prior to the candidiasis inoculation. Additionally, tap water containing 15 mg/ml of chlortetracycline hydrochloride was made freely available starting from that same day. On the day of the innoculation, in order to keep the mice in a resting state, 14.4 mg/kg of chlorpromazine hydrochloride (manufactured by Wako Pure Chemical Industries, Ltd.) was intramuscularly administered in advance. The bacterial strain and culturing method that were used were the same as in the Examples as far as the previous paragraph, and the multiplied bacterial cells were suspended in an RPMI-1640 culture medium containing 2% calf serum so as to form a bacterial solution whose bacterial count was adjusted to 2×10^8 cells/ml. […] Two days after the inoculation the mouse was euthanized, and the tongue symptom score was evaluated in accordance with a reference. […] A fixed quantity of this was then coated onto a Candida GS agar plate, and was cultured at 37° C. for 20 hours. The number of colonies appearing after this time was then measured. The number of viable Candida bacteria CFU (colony forming units) recovered from the relevant individuals was then calculated from the number of colonies.

[5] = LYZOX used in combination with terpinen-4-ol
[6] = used in combination with decanoic acid
[7] = used in combination with terpinen-4-ol

Compound | IC 70 (70% growth inhibitory concentration) [1] | Determination (mycelial growth rate taking control as 100) ([2]; 1 mg/ml) | Determination (mycelial growth rate taking control as 100) (Malassezia pachydermatis; 0.1 mg/ml) | Determination (mycelial growth rate taking control as 100) (Malassezia pachydermatis; 1 mg/ml) | IC (at a 70% growth inhibitory concentration) [1, 5] | improvement effect in the anticandidal activity against Candida mycelial growth [1] | improvement effect in the anticandidal activity from combined usage against Candida mycelial growth [1, 6] | improvement effect in the anticandidal activity from combined usage against Candida mycelial growth [1, 7] | Determination (mycelial growth rate taking control as 100) ([2]; 2.5 mg/ml) | Determination (mycelial growth rate taking control as 100) ([2]; 5 mg/ml) | Determination (mycelial growth rate taking control as 100) (Malassezia pachydermatis; 0.05 mg/ml) | Determination (mycelial growth rate taking control as 100) (Malassezia pachydermatis; 0.5 mg/ml) | other results
CCCCCCCCCC(=O)O [Decanoic acid, decanoic acid] | 480 µg/mL | ++ (21 to 90%) | +++ (91 to 100%) | +++ (91 to 100%) |  |  |  |  |  |  |  |  | IC (at a 70% growth inhibitory concentration) ([1]; LYZOX used in combination with capric acid (decanoic acid)): 25 µg/mL; Determination (mycelial growth rate taking control as 100) ([2]; 0.8 mg/ml): +++ (91 to 100%); Determination (mycelial growth rate taking control as 100) ([2]; 0.9 mg/ml): +++ (91 to 100%); Determination (mycelial growth rate taking control as 100) ([2]; 1.5 mg/ml): − (0%); Determination (mycelial growth rate taking control as 100) (Malassezia pachydermatis; 0.2 mg/ml): +++ (91 to 100%); Determination (mycelial growth rate taking control as 100) (Malassezia pachydermatis; 2 mg/ml): + (1 to 20%); MIC ([3]; TIMM2789, LYZOX and decanoic acid used in combination): 200 µg/mL; MIC ([3]; TIMM2789, used alone): 1500 µg/mL (≈ 8.71 mM)
CC1=CCC(O)(C(C)C)CC1 (stereo not shown) [Terpinen-4-ol, terpinen-4-ol] | 1900 µg/mL |  |  |  | 280 µg/mL |  |  |  |  |  |  |  | viable bacteria count recovered from the oral cavity ([4]; T 10 mg/ml on tongue dorsum 3, 24, 27 h after inoculation): reduction in the viable bacterial count
LYZOX: complex formed by bonding lysozyme to chitosan (14000 Da) via a Maillard reaction; LYZOX is a registered trademark | 193 µg/mL | +++ (91 to 100%) | ++ (21 to 90%) | − (0%) | 60 µg/mL | improvement effect in the anticandidal activity against Candida mycelial growth was visible | remarkable improvement effect | remarkable improvement effect | ++ (21 to 90%) | ++ (21 to 90%) | +++ (91 to 100%) | − (0%) | Candida growth rate ([1]; 250 μg/ml): 0.9%; tongue symptom score ([4]; L 20 mg/ml on tongue dorsum 3, 24, 27 h after inoculation): remarkable improvement effect; Determination (mycelial growth rate taking control as 100) ([2]; 10 mg/ml): − (0%); anti-Malassezia fungal activity against Malassezia fungi (Malassezia pachydermatis; summary of agar dilution and disk experiments): exhibited anti-Malassezia fungal activity; MIC (minimum inhibitory concentration) ([3]; LYZOX and decanoic acid used in combination): 100 µg/mL; MIC (minimum inhibitory concentration) ([3]; used alone): 10000 µg/mL
Lysozyme: simple lysozyme, unbonded component of the complex |  |  |  |  |  | no improvement effect | no improvement effect | no improvement effect | +++ (91 to 100%) | ++ (21 to 90%) | +++ (91 to 100%) | +++ (91 to 100%) | 
